Results published in US4446137A, “Cephalosporin derivative and pharmaceutical composition containing the derivative” (Kureha Kagaku Kogyo Kabushiki Kaisha, priority 1981, dated 1984).

Legend:
Pseudomonas aeruginosa = assay: Effect on the intestinal bacterial colonies: Ps. aeruginosa count in mouse feces; format: in vivo
Experimental: (§1) Each of the cephalosporin derivatives of the invention prepared in Examples 1 to 4 was orally administered to mice (one group consisting of five female ICR mice of 6-week-old) for two consecutive days at a dose of 500 mg/kg/day.
(§2) Before and one day after the administration, feces of each mouse was collected and diluted with an anaerobic diluent (phosphoric buffer solution) of 100 times by volume and the diluted feces was ground. 0.1 ml of the diluted and ground feces was smeared on each culture medium shown in Table 1 and cultured aerobically or anaerobically (according to the anaerobic glove box method) under each condition shown in Table 1 and the number of each bacterium shown in Table 1 was counted.
NAC agar aerobic, 37° C.,

[1] = system: Lactobacillus acidophilus; assay: Effect on the intestinal bacterial colonies: L. acidophilus count in mouse feces; format: in vivo
Experimental: as §1, §2
Lactobacillus acidophilus
LBS agar anaerobic, 37° C.,

Bacteroides = assay: Effect on the intestinal bacterial colonies: Bacteroides count in mouse feces; format: in vivo
Experimental: as §1, §2
Bacteroides NBGT agar anaerobic, 37° C.,

Streptococcus spp. = assay: Effect on the intestinal bacterial colonies: Streptococcus spp. count in mouse feces; format: in vivo
Experimental: as §1, §2
TATAC agar aerobic, 37° C.,

Escherichia coli = assay: Effect on the intestinal bacterial colonies: E. coli count in mouse feces; format: in vivo
Experimental: as §1, §2
DHL agar aerobic, 37° C.,

Lactobacillus bifidus = assay: Effect on the intestinal bacterial colonies: L. bifidus count in mouse feces; format: in vivo
Experimental: as §1, §2
BS agar anaerobic, 37° C.,

[2] = system: Escherichia coli IFO 12734; assay: Antibacterial activity (MIC), agar plate, E. coli; format: cell-based; design: unit not given beside the values; details: Mueller-Hinton agar, 37° C., 18 to 24 hours; unit not given
Experimental: (§3) Antibacterial activity of each of the cephalosporin derivatives of the invention prepared in Examples 1 to 4 was examined against the following two bacteria according to the standard method of Japan Society of Chemitherapy: Escherichia coli IFO 12734 and Staphylococcus aureus IAM 1011.
(§4) Each bacterial strain was inoculated into the Mueller-Hinton's culture medium and cultured at 37° C. for 18 to 48 hours. The cultured medium was diluted so as to contain 1×10^6 cells of the bacteria per one ml, and the obtained medium was used as the bacterial specimen.
(§5) Agar plates were prepared by adding one part by weight of each solution of the cephalosporin derivative of the invention at a predetermined concentration to nine parts by weight of Mueller-Hinton's culture medium.
(§6) A loopful amount of the bacterial specimen prepared above was smeared to make a streak of about 2 cm on each agar plate prepared above and cultured at 37° C. for 18 to 24 hours.
(§7) The minimum concentration for completely inhibiting proliferation of the bacteria (referred to as MIC) was determined.

[3] = system: Staphylococcus aureus IAM 1011; assay: Activation by rat liver homogenate (S-9 mix), proliferation-inhibiting circle, penicillin cup; format: cell-based; details: 37° C., 20 min, ratio of circle diameter to that of the starting compound; for Proliferation-inhibiting index, before adding S-9 mix (control): phosphoric buffer instead of S-9 mix; for Proliferation-inhibiting index, after adding S-9 mix: rat liver S-9 mix; as to all read-outs here: ranges in brackets are in %
Experimental: As an activating enzyme of metabolism, a rat liver homogenate (S-9, manufactured by Oriental Yeast Company, Japan) was used in the following composition per 1 ml (hereinafter referred to as S-9 mix). |S-9 0.5 ml |KCl 3.3 μmol |MgCl2.6H2 O 8 μmol |Glucose 6-phosphate 5 μmol |NADH 4 μmol |NADPH 4 μmol |0.2 M phosphoric buffer solution | 0.5 ml |(pH of 7.4) 0.1 ml of the solution of each of the cephalosporin derivatives of the invention prepared in Examples 1 to 4 at a concentration of 100 μg/ml was mixed with 0.9 ml of S-9 mix or 0.9 ml of 0.1 M phosphoric buffer solution (as a control) and the obtained mixture was incubated at 37° C. for 20 min with shaking. Staphylococcus aureus IAM 1011 was inoculated into a Mueller-Hinton's culture medium and cultured at 37° C. for 18 hours. The culture medium was adjusted to a cell concentration of 1×10^8 per 1 ml and mixed with 50 times by volume of Mueller-Hinton's agar culture medium to obtain an agar plate. A penicillin cup of 8 mm in diameter was placed on the agar plate prepared above, and into the cup 0.1 ml of the mixture containing the cephalosporin derivative prepared above was introduced and allowed to stand at 4° C. for 2 hours, and then cultured at 37° C. for 18 hours to measure the diameter of a circle in which the proliferation of bacteria was inhibited (proliferation-inhibiting circle). In Table 4, the proliferation-inhibiting index is shown in the ratio (%) of the diameter of the proliferation-inhibiting circle obtained by using each of the cephalosporin derivatives of the invention to that obtained by using each of the starting compound in preparing each of the cephalosporin derivatives of the invention.

[4] = system: Staphylococcus aureus IAM 1011; assay: Antibacterial activity (MIC), agar plate, Staph. aureus; format: cell-based; design: unit not given beside the values; details: Mueller-Hinton agar, 37° C., 18 to 24 hours; unit not given
Experimental: as §3, §4, §5, §6, §7

[5] = female ICR mice, oral 500 mg/kg/day for two days, one day after administration, before administration 6.4

SMILES	Logarithmic value of the number of bacterial cells per one g of feces: Ps. aeruginosa (Pseudomonas aeruginosa; in vivo, po, 500 mg/kg/day)	MIC, E. coli [2]	Logarithmic value of the number of bacterial cells per one g of feces: L. acidophilus ([1]; in vivo, po, 500 mg/kg/day)	Logarithmic value of the number of bacterial cells per one g of feces: Bacteroides (Bacteroides; in vivo, po, 500 mg/kg/day)	Logarithmic value of the number of bacterial cells per one g of feces: Strept. spp. (Streptococcus spp.; in vivo, po, 500 mg/kg/day)	MIC, Staph. aureus [4]	Logarithmic value of the number of bacterial cells per one g of feces: E. coli (Escherichia coli; [5])	Logarithmic value of the number of bacterial cells per one g of feces: L. bifidus (Lactobacillus bifidus; in vivo, po, 500 mg/kg/day)	Logarithmic value of the number of bacterial cells per one g of feces: Ps. aeruginosa (Pseudomonas aeruginosa; female ICR mice, oral 500 mg/kg/day for two days, one day after administration, before administration <3.0)	Logarithmic value of the number of bacterial cells per one g of feces: L. acidophilus ([1]; female ICR mice, oral 500 mg/kg/day for two days, one day after administration, before administration 9.0)	change of Lactobacillus acidophilus ([1]; mouse feces, result in words)	Logarithmic value of the number of bacterial cells per one g of feces: Bacteroides (Bacteroides; female ICR mice, oral 500 mg/kg/day for two days, one day after administration, before administration 8.3)	Logarithmic value of the number of bacterial cells per one g of feces: Strept. spp. (Streptococcus spp.; female ICR mice, oral 500 mg/kg/day for two days, one day after administration, before administration 6.8)	change of the number of Escherichia coli compared to before administration (Escherichia coli; in vivo)	Logarithmic value of the number of bacterial cells per one g of feces: E. coli (Escherichia coli; in vivo, po, 500 mg/kg/day)	Logarithmic value of the number of bacterial cells per one g of feces: L. bifidus (Lactobacillus bifidus; female ICR mice, oral 500 mg/kg/day for two days, one day after administration, before administration 8.4)	Proliferation-inhibiting index, before adding S-9 mix (control) [3]	Proliferation-inhibiting index, after adding S-9 mix [3]
CC(=O)OCC1=C(C(=O)O)N2C(=O)[C@@H](NC(=O)Cc3cccs3)[C@H]2SC1 [Cephalotin, reference compound]	–	–	–	–	–	–	–	–	< 3.0 Logarithmic value of the numbe	4.1 Logarithmic value of the numbe	decreased	7.2 Logarithmic value of the numbe	9.0 Logarithmic value of the numbe	increased	9.9 Logarithmic value of the numbe	9.2 Logarithmic value of the numbe	–	–
COC(=O)C[C@H](NC(=O)C1=C(COC(C)=O)CSC2C(NC(=O)Cc3cccs3)C(=O)N12)C(=O)OC (stereo partly drawn) [Example 1, N-[1,2-bis(carbomethoxy)ethyl]-7-(thienyl-2-acetamido)cephalosporanic acid amide]	< 3.3 Logarithmic value of the numbe	≥ 100	9.0 Logarithmic value of the numbe	8.5 Logarithmic value of the numbe	7.0 Logarithmic value of the numbe	≥ 12.5	6.3 Logarithmic value of the numbe	8.6 Logarithmic value of the numbe	–	–	–	–	–	–	–	–	- (0)	± (0-1)
CCOC(=O)C(Cc1ccc(O)cc1)NC(=O)C1=C(COC(C)=O)CSC2C(NC(=O)Cc3cccs3)C(=O)N12 (stereo not drawn) [Example 3, N-[1-carboethoxy-2-(4-hydroxyphenyl)ethyl]-7-(thienyl-2-acetamido)cephalosporanic acid amide]	< 3.0 Logarithmic value of the numbe	≥ 100	8.9 Logarithmic value of the numbe	8.7 Logarithmic value of the numbe	6.3 Logarithmic value of the numbe	≥ 12.5	6.5 Logarithmic value of the numbe	8.2 Logarithmic value of the numbe	–	–	–	–	–	–	–	–	- (0)	± (0-1)

Now from value to compound, other results behind:

Logarithmic value of the number of bacterial cells per one g of feces: Ps. aeruginosa (Pseudomonas aeruginosa; in vivo, po, 500 mg/kg/day)	MIC, E. coli [2]	Logarithmic value of the number of bacterial cells per one g of feces: L. acidophilus ([1]; in vivo, po, 500 mg/kg/day)	Logarithmic value of the number of bacterial cells per one g of feces: Bacteroides (Bacteroides; in vivo, po, 500 mg/kg/day)	Logarithmic value of the number of bacterial cells per one g of feces: Strept. spp. (Streptococcus spp.; in vivo, po, 500 mg/kg/day)	MIC, Staph. aureus [4]	Logarithmic value of the number of bacterial cells per one g of feces: E. coli (Escherichia coli; [5])	Logarithmic value of the number of bacterial cells per one g of feces: L. bifidus (Lactobacillus bifidus; in vivo, po, 500 mg/kg/day)	SMILES	Logarithmic value of the number of bacterial cells per one g of feces: Ps. aeruginosa (Pseudomonas aeruginosa; female ICR mice, oral 500 mg/kg/day for two days, one day after administration, before administration <3.0)	Logarithmic value of the number of bacterial cells per one g of feces: L. acidophilus ([1]; female ICR mice, oral 500 mg/kg/day for two days, one day after administration, before administration 9.0)	change of Lactobacillus acidophilus ([1]; mouse feces, result in words)	Logarithmic value of the number of bacterial cells per one g of feces: Bacteroides (Bacteroides; female ICR mice, oral 500 mg/kg/day for two days, one day after administration, before administration 8.3)	Logarithmic value of the number of bacterial cells per one g of feces: Strept. spp. (Streptococcus spp.; female ICR mice, oral 500 mg/kg/day for two days, one day after administration, before administration 6.8)	change of the number of Escherichia coli compared to before administration (Escherichia coli; in vivo)	Logarithmic value of the number of bacterial cells per one g of feces: E. coli (Escherichia coli; in vivo, po, 500 mg/kg/day)	Logarithmic value of the number of bacterial cells per one g of feces: L. bifidus (Lactobacillus bifidus; female ICR mice, oral 500 mg/kg/day for two days, one day after administration, before administration 8.4)	Proliferation-inhibiting index, before adding S-9 mix (control) [3]	Proliferation-inhibiting index, after adding S-9 mix [3]
< 3.0 Logarithmic value of the numbe	≥ 100	8.9 Logarithmic value of the numbe	8.8 Logarithmic value of the numbe	6.6 Logarithmic value of the numbe	≥ 12.5	6.4 Logarithmic value of the numbe	8.3 Logarithmic value of the numbe	COC(=O)[C@H](CCSC)NC(=O)C1=C(COC(C)=O)CSC2C(NC(=O)Cc3cccs3)C(=O)N12 (stereo partly drawn) [Example 2, N-(1-carbomethoxy-3-thiomethylpropyl)-7-(thienyl-2-acetamido)cephalosporanic acid amide]	–	–	–	–	–	–	–	–	- (0)	± (0-1)
< 3.9 Logarithmic value of the numbe	≥ 100	9.4 Logarithmic value of the numbe	8.3 Logarithmic value of the numbe	7.0 Logarithmic value of the numbe	12.5	6.0 Logarithmic value of the numbe	8.9 Logarithmic value of the numbe	COC(=O)CCC(NC(=O)C1=C(COC(C)=O)CSC2C(NC(=O)Cc3cccs3)C(=O)N12)C(=O)OC (stereo not drawn) [Example 4, N-[1,3-bis(carbomethoxy)propyl]-7-(thienyl-2-acetamido)cephalosporanic acid amide]	–	–	–	–	–	–	–	–	+ (1-33)	++ (33-66)
